System: GM3
Assay: GM3 Elisa assay
Type: cell-based
Conditions: Table 3 (IC 50 Values); B16-FO cells; read-out: IC50_uM_Mean
How it was run: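 Cellular GM3 ELISA: fixed cells probed with monoclonal anti-GM3 (NeuAc), HRP-conjugated anti-IgM and fluorogenic Quantablu substrate, read at Ex 325/Em 420. Cells were B16-FO, treated 2 days after a 6 h attachment on collagen-coated wells.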

Row | IC50 [nM] | SMILES
1 | 3000 to 10000 | COc1ccc(OCCC(=O)N(Cc2ccc(-c3nc(C)no3)cc2)[C@H](CN2CCCC2)[C@H](O)c2ccc(O)cc2)cc1 [Compound 721]
2 | ≤ 100 | COc1ccc(OCCC(=O)N[C@H](CN2CCCC2)[C@H](O)c2ccc(OCCOc3cccc(C)c3)cc2)cc1 [Compound 722]
3 | ≤ 100 | COc1ccc(OCCC(=O)N[C@H](CN2CCCC2)[C@H](O)c2ccc(OCCOc3ccc(Cl)cc3)cc2)cc1 [Compound 723]
4 | 100 to 1000 | CC(=O)c1ccc(OCCCC(=O)N[C@H](CN2CCCC2)[C@H](O)c2ccc(OC(C)C)cc2)cc1 [Compound 724]
5 | 100 to 1000 | CC(C)Oc1ccc([C@@H](O)[C@@H](CN2CCC(F)C2)NC(=O)CCOc2ccc(Cl)cc2)cc1 (some centres unmarked) [Compound 725]
6 | 100 to 1000 | CC(C)Oc1ccc([C@@H](O)[C@@H](CN2CCC(F)C2)NC(=O)NCc2ccc(Cl)cc2)cc1 (some centres unmarked) [Compound 726]
7 | ≤ 100 | CCCCCCOc1ccc([C@@H](O)[C@@H](CN2CCCC2)NC(=O)CCCOc2ccc(C(C)=O)cc2)cc1 [Compound 727]
8 | ≤ 100 | CCCCCCOc1ccc([C@@H](O)[C@@H](CN2CC[C@H](O)C2)NC(=O)CCCOc2ccc(OC)cc2)cc1 [Compound 728]
9 | ≤ 100 | CCCCCCOc1ccc([C@@H](O)[C@@H](CN2CC[C@H](O)C2)NC(=O)CCOc2ccc(Cl)cc2)cc1 [Compound 729]
10 | ≤ 100 | CCCCCCOc1ccc([C@@H](O)[C@@H](CN2CC[C@@H](F)C2)NC(=O)CCCOc2ccc(OC)cc2)cc1 [Compound 730]
11 | ≤ 100 | CCCCCCOc1ccc([C@@H](O)[C@@H](CN2CC[C@@H](F)C2)NC(=O)CCOc2ccc(Cl)cc2)cc1 [Compound 731]
12 | 100 to 1000 | COc1ccc(C(=O)CCCC(=O)N[C@H](CN2CC[C@H](O)C2)[C@H](O)c2ccc(OC(C)C)cc2)cc1 [Compound 732]
13 | ≤ 100 | COc1ccc(OCCCC(=O)N[C@H](CN2CC[C@H](O)C2)[C@H](O)c2ccc(OC(C)C)cc2)cc1 [Compound 733]
14 | ≤ 100 | COc1ccc(OCCCC(=O)N[C@H](CN2CC[C@@H](F)C2)[C@H](O)c2ccc(OCCCCF)cc2)cc1 [Compound 734]
15 | ≤ 100 | O=C(NCc1ccc(Cl)cc1)N[C@H](CN1CC[C@@H](F)C1)[C@H](O)c1ccc(OCCCCF)cc1 [Compound 735]
16 | ≤ 100 | COc1ccc(C(=O)CCCC(=O)N[C@H](CN2CC[C@@H](F)C2)[C@H](O)c2ccc(OCCCCF)cc2)cc1 [Compound 736]
17 | 100 to 1000 | COCCOc1ccc(C(=O)CCCC(=O)N[C@H](CN2CC[C@H](O)C2)[C@H](O)c2ccc(OC(C)C)cc2)cc1 [Compound 737]
18 | ≤ 100 | Cc1ccc(OCCC(=O)N[C@H](CN2CC[C@H](O)C2)[C@H](O)c2ccc(OC(C)C)cc2)cc1 [Compound 738]
19 | ≤ 100 | Cc1ccc(OCCC(=O)N[C@H](CN2CC[C@@H](F)C2)[C@H](O)c2ccc(OCCCCF)cc2)cc1 [Compound 739]
20 | ≤ 100 | COCCOc1ccc(C(=O)CCCCC(=O)N[C@H](CN2CC[C@H](O)C2)[C@H](O)c2ccc(OC(C)C)cc2)cc1 [Compound 740]
